Laboratory results taken from patent US10414763B2 (CANCER RESEARCH TECHNOLOGY LIMITED, priority 2014, dated 2019).
pIC50: −log10 of the molar value.

biological target: T1, full-length human PKCι (Homo sapiens, UniProt P41743); assay: PKCι IC50 IMAP fluorescence polarisation assay, full-length enzyme, 150 μM ATP; type: biochemical; conditions: read-out: IC50 in IMAP assay against full length PKCi at 150 μM ATP
T1 construct: Recombinant, full-length human PKCι expressed in Sf21 insect cells is also commercially available; purchased EMD Millipore; host or cells: Sf21 insect cells (baculovirus)
T1 sequence (P41743 1-596): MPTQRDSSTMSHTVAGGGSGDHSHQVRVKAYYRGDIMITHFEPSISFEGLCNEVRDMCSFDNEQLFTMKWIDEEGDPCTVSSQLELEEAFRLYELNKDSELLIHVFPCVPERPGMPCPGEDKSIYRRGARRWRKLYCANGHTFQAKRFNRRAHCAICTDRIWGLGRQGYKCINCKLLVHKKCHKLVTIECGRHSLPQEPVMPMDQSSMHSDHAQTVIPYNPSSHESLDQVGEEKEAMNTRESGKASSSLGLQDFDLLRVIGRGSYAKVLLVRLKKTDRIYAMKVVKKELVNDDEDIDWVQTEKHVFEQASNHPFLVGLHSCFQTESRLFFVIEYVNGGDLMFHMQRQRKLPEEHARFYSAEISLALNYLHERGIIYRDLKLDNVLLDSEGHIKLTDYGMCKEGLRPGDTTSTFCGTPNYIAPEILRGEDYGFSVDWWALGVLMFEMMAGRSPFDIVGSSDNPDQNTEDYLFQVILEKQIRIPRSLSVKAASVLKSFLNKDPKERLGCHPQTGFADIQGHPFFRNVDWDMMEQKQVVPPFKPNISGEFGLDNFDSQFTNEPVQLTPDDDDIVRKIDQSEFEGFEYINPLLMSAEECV
Procedure, shortened: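 IMAP fluorescence polarisation kinase assay: 15 pM baculovirus-expressed human PKCiota with 100 nM FAM-pseudosubstrate peptide and 150 μM ATP, 1 h at 25 °C. IMAP detection reagent then 2 h at 25 °C before FP measurement. Inhibition referenced to no-compound and no-enzyme controls for IC50 fitting.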

| Structure (SMILES) | pIC50 |
| --- | --- |
| N[C@H]1C[C@@H](Nc2nc(-c3ccnc4[nH]c5ccccc5c34)nc3cncc(C4CCC4)c23)C1 [Example 121, cis-[5-Cyclobutyl-2-(9H-pyrido[2,3-b]indol-4-yl)-pyrido[3,4-d]pyrimidin-4-yl]-cyclobutane-1,3-diamine] | > 7.00 |
| OC1CNCCC(Nc2nc(-c3ccnc4[nH]c5ccccc5c34)nc3cncc(C4CCC4)c23)C1 (stereo not shown) [Example 122, 5-[5-Cyclobutyl-2-(9H-pyrido[2,3-b]indol-4-yl)-pyrido[3,4-d]pyrimidin-4-ylamino]-azepan-3-ol] | > 7.00 |
| Fc1cc(F)c(Nc2cc(-c3nc(N4CCC5NCCCC54)c4c(C5CCC5)cncc4n3)ccn2)nc1F (stereo not shown) [Example 123, {4-[5-Cyclobutyl-4-(octahydro-pyrrolo[3,2-b]pyridin-1-yl)-pyrido[3,4-d]pyrimidin-2-yl]-pyridin-2-yl}-(3,5,6-trifluoro-pyridin-2-yl)-amine] | > 7.00 |
| Fc1ccc(F)c(Nc2cc(-c3nc(N4CCC5NCCCC54)c4c(C5CCC5)cncc4n3)ccn2)n1 (stereo not shown) [Example 124, {4-[5-Cyclobutyl-4-(octahydro-pyrrolo[3,2-b]pyridin-1-yl)-pyrido[3,4-d]pyrimidin-2-yl]-pyridin-2-yl}-(3,6-difluoro-pyridin-2-yl)-amine] | > 7.00 |
| c1ccc(Nc2cc(-c3nc(N4CCC5NCCCC54)c4c(C5CCC5)cncc4n3)ccn2)cc1 (stereo not shown) [Example 125, {4-[5-Cyclobutyl-4-(octahydro-pyrrolo[3,2-b]pyridin-1-yl)-pyrido[3,4-d]pyrimidin-2-yl]-pyridin-2-yl}-phenyl-amine] | > 7.00 |
| CC1CNCCC1Nc1nc(-c2ccnc(Nc3nc(F)c(F)cc3F)c2)nc2cncc(C3CCC3)c12 (stereo not shown) [Example 126, {5-Cyclobutyl-2-[2-(3,5,6-trifluoro-pyridin-2-ylamino)-pyridin-4-yl]-pyrido[3,4-d]pyrimidin-4-yl}-(3-methyl-piperidin-4-yl)-amine] | > 7.00 |
| CC1CNCCC1Nc1nc(-c2ccnc(Nc3nc(F)ccc3F)c2)nc2cncc(C3CCC3)c12 (stereo not shown) [Example 127, {5-Cyclobutyl-2-[2-(3,6-difluoro-pyridin-2-ylamino)-pyridin-4-yl]-pyrido[3,4-d]pyrimidin-4-yl}-(3-methyl-piperidin-4-yl)-amine] | > 7.00 |
| Clc1ccccc1-c1cc2c(-c3nc(N4CCC5NCCC54)c4c(C5CC5)cncc4n3)ccnc2[nH]1 (stereo not shown) [Example 128, 2-[2-(2-Chloro-phenyl)-1H-pyrrolo[2,3-b]pyridin-4-yl]-5-cyclopropyl-4-(hexahydro-pyrrolo[3,2-b]pyrrol-1-yl)-pyrido[3,4-d]pyrimidine] | > 7.00 |
| Clc1ccccc1-c1cc2c(-c3nc(N4CCC5NCCCC54)c4c(C5CC5)cncc4n3)ccnc2[nH]1 (stereo not shown) [Example 129, 2-[2-(2-Chloro-phenyl)-1H-pyrrolo[2,3-b]pyridin-4-yl]-5-cyclopropyl-4-(octahydro-pyrrolo[3,2-b]pyridin-1-yl)-pyrido [3,4-d]pyrimidine] | > 7.00 |
| Clc1cc2c(-c3nc(N4CCNCC4)c4c(C5CCC5)cncc4n3)ccnc2[nH]1 [Example 130, 2-(2-Chloro-1H-pyrrolo[2,3-b]pyridin-4-yl)-5-cyclobutyl-4-piperazin-1-yl-pyrido[3,4-d]pyrimidine] | > 7.00 |
| c1ncc(-c2cc3c(-c4nc(N5CCNCC5)c5c(C6CCC6)cncc5n4)ccnc3[nH]2)cn1 [Example 131, 5-Cyclobutyl-4-piperazin-1-yl-2-(2-pyrimidin-5-yl-1H-pyrrolo[2,3-b]pyridin-4-yl)-pyrido[3,4-d]pyrimidine] | > 7.00 |
| Cn1cc(-c2cc3c(-c4nc(N5CCNCC5)c5c(C6CCC6)cncc5n4)ccnc3[nH]2)cn1 [Example 132] | > 7.00 |
| CCSc1cc2c(-c3nc(N4CCNCC4)c4c(C5CCC5)cncc4n3)ccnc2[nH]1 [Example 133, 5-Cyclobutyl-2-(2-ethylsulfanyl-1H-pyrrolo[2,3-b]pyridin-4-yl)-4-piperazin-1-yl-pyrido[3,4-d]pyrimidine] | > 7.00 |
| CCSc1cc2c(-c3nc(N4CCNCC4)c4c(C5CC5)cncc4n3)ccnc2[nH]1 [Example 134, 5-Cyclopropyl-2-(2-ethylsulfanyl-1H-pyrrolo[2,3-b]pyridin-4-yl)-4-piperazin-1-yl-pyrido[3,4-d]pyrimidine] | > 7.00 |
| CC1(C)CNCCC1Nc1nc(-c2ccnc(Nc3cc4ccccn4n3)c2)nc2cncc(C3CCC3)c12 (stereo not shown) [Example 136, {5-Cyclobutyl-2-[2-(pyrazolo[1,5-a]pyridin-2-ylamino)-pyridin-4-yl]-pyrido[3,4-d]pyrimidin-4-yl}-(3,3-dimethyl-piperidin-4-yl)-amine] | > 7.00 |
| CC1(C)CC(Nc2nc(-c3ccnc(Nc4nc(F)c(F)cc4F)c3)nc3cncc(C4CCC4)c23)CCN1 (stereo not shown) [Example 137, {5-Cyclobutyl-2-[2-(3,5,6-trifluoro-pyridin-2-ylamino)-pyridin-4-yl]-pyrido[3,4-d]pyrimidin-4-yl}-(2,2-dimethyl-piperidin-4-yl)-amine] | > 7.00 |
| CC1(C)CC(Nc2nc(-c3ccnc(Nc4nc(F)ccc4F)c3)nc3cncc(C4CCC4)c23)CCN1 (stereo not shown) [Example 138, {5-Cyclobutyl-2-[2-(3,6-difluoro-pyridin-2-ylamino)-pyridin-4-yl]-pyrido[3,4-d]pyrimidin-4-yl}-(2,2-dimethyl-piperidin-4-yl)-amine] | > 7.00 |
| Clc1ccc(-c2cc3c(-c4nc(N5CCNCC5)c5c(C6CC6)cncc5n4)ccnc3[nH]2)cc1 [Example 139, 2-[2-(4-Chloro-phenyl)-1H-pyrrolo[2,3-b]pyridin-4-yl]-5-cyclopropyl-4-piperazin-1-yl-pyrido[3,4-d]pyrimidine] | > 7.00 |
| Clc1ccc(-c2cc3c(-c4nc(N5CCC6NCCC65)c5c(C6CC6)cncc5n4)ccnc3[nH]2)cc1 (stereo not shown) [Example 140, 2-[2-(4-Chloro-phenyl)-1H-pyrrolo[2,3-b]pyridin-4-yl]-5-cyclopropyl-4-(hexahydro-pyrrolo[3,2-b]pyrrol-1-yl)-pyrido[3,4-d]pyrimidine] | > 7.00 |
| c1ccc2c(c1)[nH]c1nccc(-c3nc(N[C@@H]4CCCNCC4)c4c(C5CCC5)cncc4n3)c12 [Example 141, (R)-Azepan-4-yl-[5-cyclobutyl-2-(9H-pyrido[2,3-b]indol-4-yl)-pyrido[3,4-d]pyrimidin-4-yl]-amine] | > 7.00 |
| Clc1ccc(Cl)c(-c2cc3c(-c4nc(N5CCC6NCCCC65)c5c(C6CC6)cncc5n4)ccnc3[nH]2)c1 (stereo not shown) [Example 142, 5-Cyclopropyl-2-[2-(2,5-dichloro-phenyl)-1H-pyrrolo[2,3-b]pyridin-4-yl]-4-(octahydro-pyrrolo [3,2-b]pyridin-1-yl)-pyrido[3,4-d]pyrimidine] | > 7.00 |
| c1ccn2nc(Nc3cc(-c4nc(N5CCC6CNCCC65)c5c(C6CC6)cncc5n4)ccn3)nc2c1 (stereo not shown) [Example 152, {4-[5-Cyclopropyl-4-(octahydro-pyrrolo[3,2-c]pyridin-1-yl)-pyrido [3,4-d]pyrimidin-2-yl]-pyridin-2-yl}-[1,2,4]triazolo[1,5-a] pyridin-2-yl-amine] | 5.00 to 6.00 |
| Cc1cc2c(-c3nc(N[C@H]4CCNCC4(C)C)c4c(C5CC5)cncc4n3)ccnc2[nH]1 [Example 153, [5-Cyclopropyl-2-(2-methyl-1H-pyrrolo[2,3-b]pyridin-4-yl)-pyrido[3,4-d]pyrimidin-4-yl]-((S)-3,3-dimethyl-piperidin-4-yl)-amine] | 6.00 to 7.00 |
| Cc1cc2c(-c3nc(N[C@@H]4CCNCC4(C)C)c4c(C5CC5)cncc4n3)ccnc2[nH]1 [Example 154, [5-Cyclopropyl-2-(2-methyl-1H-pyrrolo[2,3-b]pyridin-4-yl)-pyrido[3,4-d]pyrimidin-4-yl]-((R)-3,3-dimethyl-piperidin-4-yl)-amine] | > 7.00 |
| FC(F)(F)c1cc2c(-c3nc(N4CCOC5CNCC54)c4c(C5CC5)cncc4n3)ccnc2[nH]1 (stereo not shown) [Example 155, 5-Cyclopropyl-4-(hexahydro-pyrrolo[3,4-b] [1,4]oxazin-4-yl)-2-(2-trifluoromethyl-1H-pyrrolo[2,3-b]pyridin-4-yl)-pyrido[3,4-d]pyrimidine] | > 7.00 |
| CC1(C)CNCCC1Nc1nc(-c2ccnc3[nH]c(-c4ccc(C(N)=O)cc4)cc23)nc2cncc(C3CC3)c12 (stereo not shown) [Example 156, 4-{4-[5-Cyclopropyl-4-(3,3-dimethyl-piperidin-4-ylamino)-pyrido[3,4-d]pyrimidin-2-yl]-1H-pyrrolo[2,3-b]pyridin-2-yl}-benzamide] | > 7.00 |
| CC1(C)CNCC[C@H]1Nc1nc(-c2ccnc(Nc3nc(F)ccc3F)c2)nc2cncc(C3CC3)c12 [Example 157, {5-Cyclopropyl-2-[2-(3,6-difluoro-pyridin-2-ylamino)-pyridin-4-yl]-pyrido[3,4-d]pyrimidin-4-yl}-((R)-3,3-dimethyl-piperidin-4-yl)-amine] | 6.00 to 7.00 |
| CC1(C)CNCC[C@@H]1Nc1nc(-c2ccnc(Nc3nc(F)ccc3F)c2)nc2cncc(C3CC3)c12 [Example 158, {5-Cyclopropyl-2-[2-(3,6-difluoro-pyridin-2-ylamino)-pyridin-4-yl]-pyrido[3,4-d]pyrimidin-4-yl}-((S)-3,3-dimethyl-piperidin-4-yl)-amine] | > 7.00 |
